A short description of the data set: Human HepG2 cell viability assay in 384 well format. The format is toxicity, cell-based. Details: dose 125 nL, time 70.5 hour; cytotoxicity at 70.5 h: concentration not given beside the values. The note with it: HepG2 cells, read-out: Inhibition.

As to `O=C(NCCN1CCCCC1)c1ccn(-c2ccc(F)cc2)n1`, the cytotoxicity at 70.5 h amounted to 0.39%.

For the molecule `O=C(CCNc1ncccn1)N1CCCN(c2nccs2)CC1`, the cytotoxicity at 70.5 h was 15.2%.

Take `CNS(=O)(=O)c1cccc(CNc2ncccn2)c1`: the cytotoxicity at 70.5 h is -1.46%.

Take `CN(Cc1nnc2n1CCC2)C(=O)Cc1ccc2c(c1)CCC2`: the cytotoxicity at 70.5 h is -6.67%.

As to `Cc1csc(N2CCN(C(=O)CCCNc3ncccn3)CC2)n1`, the cytotoxicity at 70.5 h was -5.37%.

Consider `O=C(NCCNc1ncccn1)C1CC(=O)N(Cc2ccccn2)C1` (stereo unspecified), for which the cytotoxicity at 70.5 h is 17.5%.

For the molecule `CC(C)COCC(NC(=O)c1ccncc1)c1ccco1` (stereo unspecified), the cytotoxicity at 70.5 h is -4.28%.

On to `Cc1cnc(C(=O)NC(COCC(C)C)c2ccco2)cn1` (stereo unspecified), for which the cytotoxicity at 70.5 h was -0.693%.

As to `CCN1CCN(CCNC(=O)c2ccn(-c3ccc(F)cc3)n2)CC1`, the cytotoxicity at 70.5 h is -3.79%.

Regarding `CC(=O)N1CCN(C(=O)CN2CCCC2Cn2nc(C)cc2C)CC1` (stereo unspecified), the cytotoxicity at 70.5 h came out at 11.5%.

Regarding `Cn1nc2c(cc1=O)CN(CCN1CCCC1=O)CC2`, the cytotoxicity at 70.5 h is -1.09%.

As for `Cc1csc(N2CCN(C(=O)c3ccc(C)s3)CC2)n1`, the cytotoxicity at 70.5 h came to 5.75%.

For the molecule `Cc1cc(C)n(CC2CCCN2C(=O)Cc2c(C)nc(C)[nH]c2=O)n1` (stereo unspecified), the cytotoxicity at 70.5 h was -13.8%.

In the case of `CC(O)CN1CCC(CNCc2cccc(C(=O)N(C)C)c2)CC1` (stereo unspecified), the cytotoxicity at 70.5 h stood at 1.45%.

Consider `CC(Cn1cccn1)NCc1csc(Cc2ccccc2)n1` (stereo unspecified), for which the cytotoxicity at 70.5 h was 0.563%.

For `Cc1nc(C2CCCN2CCCc2nc3ccccc3o2)no1` (stereo unspecified), the cytotoxicity at 70.5 h was -1.3%.

In the case of `c1ccc(CN2CCCC(Cn3cncn3)C2)nc1` (stereo unspecified), the cytotoxicity at 70.5 h came to 20.8%.

Regarding `COc1ccccc1OCCC(=O)N1CCCCC1c1nccs1` (stereo unspecified), the cytotoxicity at 70.5 h is 0.499%.

Regarding `O=C(NCCNc1ncccn1)N1CCN(c2nccs2)CC1`, the cytotoxicity at 70.5 h was -2.7%.

As to `Cc1cc(C2CCCN2Cc2nc3ccccc3o2)on1` (stereo unspecified), the cytotoxicity at 70.5 h amounted to 1.19%.

`CCOc1ccc(S(=O)(=O)NC(=O)CC2CCCO2)cc1` (stereo unspecified): the cytotoxicity at 70.5 h was 17.8%.

As to `CS(=O)(=O)CCNC(=O)c1ccc(-c2ccco2)[nH]c1=O`, the cytotoxicity at 70.5 h is 1.54%.

For the molecule `Cc1nc(-c2ccccc2)n(CC(=O)NC(C)C)n1`, the cytotoxicity at 70.5 h is -1.29%.

Turning to `c1csc(-c2noc(CN3CCCCC3Cn3cccn3)n2)c1` (stereo unspecified), the cytotoxicity at 70.5 h was -1.63%.

For the molecule `O=C1COc2ccc(C(=O)N3CCCC(n4ccnc4)C3)cc2N1` (stereo unspecified), the cytotoxicity at 70.5 h was determined as 2.98%.

Take `Cc1nc(C2CCCN(C(=O)c3cc(Cl)c[nH]3)C2)sc1C` (stereo unspecified): the cytotoxicity at 70.5 h was -2.27%.

With `COc1cccc(C(=O)N2CCCCC2c2nccs2)c1OC` (stereo unspecified), the cytotoxicity at 70.5 h was determined as 2.23%.

Regarding `O=C(NCCNc1ncccn1)N1CCN(C2CCCC2)CC1`, the cytotoxicity at 70.5 h was -8.5%.

As to `COc1cc(C(=O)N2CCCC(c3cc(C)[nH]n3)C2)cc(OC)c1C` (stereo unspecified), the cytotoxicity at 70.5 h amounted to 29%.

On to `Cc1cnn(CCC(=O)N2CCCC(c3cc(C)[nH]n3)C2)c1` (stereo unspecified), for which the cytotoxicity at 70.5 h was found to be 49%.

In the case of `COc1c(C2CCCN2CC(=O)Nc2ccncc2)c(C)nn1C` (stereo unspecified), the cytotoxicity at 70.5 h turned out to be 6.03%.

For `O=C(NCc1nncn1-c1ccccc1)C1CC1`, the cytotoxicity at 70.5 h was -1.31%.

As to `Cc1ccc(OCCCC(=O)NC(C)c2nnc3n2CCC3)cc1` (stereo unspecified), the cytotoxicity at 70.5 h was -0.817%.

With `Cc1cccc(OCCC(=O)NC(C)c2nnc3n2CCC3)c1` (stereo unspecified), the cytotoxicity at 70.5 h is 2.23%.

On to `Cc1ccccc1OCCCC(=O)NC(C)c1nnc2n1CCC2` (stereo unspecified), for which the cytotoxicity at 70.5 h is -2.09%.

Regarding `CN(C)c1cc(CNC(=O)Nc2cccnc2N2CCCC2)ccn1`, the cytotoxicity at 70.5 h was -2.03%.

Consider `O=C(NCc1ccc2c(c1)OCO2)Nc1cccnc1N1CCCC1`, for which the cytotoxicity at 70.5 h was -2.2%.

In the case of `O=C(NCc1ccc(-n2cncn2)nc1)c1ccc2c(c1)CCC2`, the cytotoxicity at 70.5 h was found to be 0.85%.

`COc1ccc(CNC(=O)Nc2ccc(N3CCCC3)nc2)cc1O`: the cytotoxicity at 70.5 h is -2.31%.

In the case of `COc1ncccc1NC(=O)NC(C)c1nncn1C` (stereo unspecified), the cytotoxicity at 70.5 h was -5.01%.

Regarding `COc1ccc(CNC(=O)Nc2cccnc2N2CCCC2)cc1OC`, the cytotoxicity at 70.5 h was 20.8%.

These data come from ChEMBL document CHEMBL3507680, “University of Dundee, Gates Library screen for HepG2 cell viability”.
